Measured values published in US20160067425A1, “DEVICES AND METHODS FOR TREATING TISSUES AND TISSUE CONDITIONS” (priority 2014, published 2016).

How the values were obtained:
[1] = system: basal cell carcinoma (BCC); assay: Intralesional treatment of clamp-isolated basal cell carcinoma on the ear lobe (Example 1); type: in vivo, human
Method: A person with basal cell carcinoma (one year history of asymptomatic growth) on their left ear lobe was treated by mechanically isolating the basal cell carcinoma (BCC). Diagnosis of BCC was made based on the lesion's clinical presentation as a well-circumscribed pearly nodule with central crusted ulceration (see FIG. 14A) and the results of a shave biopsy (see FIG. 15A). The patient refused surgical therapy.
A chalazion clamp was used to isolate the tissue surrounding the BCC. One fifth unit (0.2 cc×1 unit/cc) of bleomycin in 1% lidocaine was injected into the clamped region (systemic bleomycin concentrations are typically in the range of 0.00023 units/mL or about 1000×lower). […] After 20 minutes, an 18-gauge needle was used to remove most of the injected fluid from the clamped area. The chalazion clamp was then removed.

[2] = typical systemic range, compared with 1 unit/cc injected; cited from earlier work

Q: For bleomycin, which “adverse effects / patient complaints” value ([1]; 0.2 unit intralesional in clamped region, 20 minutes) is on record?
A: no adverse effects

Q: And the “retention of injected agent in the pressure isolated region” value ([1]; chalazion clamp, evidenced by localized raised and stretched area of the skin)?
A: remained within the clamped area

Q: What about the “clinical appearance of the BCC after treatment” value ([1]; patient, left ear lobe, 0.2 cc x 1 unit/cc in 1% lidocaine injected into chalazion-clamped region, removed after 20 minutes, 25-days post-treatment) of the same substance?
A: clinically cured

Q: What about the “histology from 4 mm punch biopsy after treatment” value ([1]; post-treatment punch biopsy, FIG. 15B) of the same substance?
A: confirm by histology

Q: And the “systemic concentrations typically used” value [2]?
A: ~0.00023 units/mL
